Measured values published in patent US20220372491A1, “TREATMENT OF RENAL CYSTIC DISEASE” (MONASH UNIVERSITY, priority 2019, published 2022).

Legend:
mTOR = mTOR (Mus musculus, UniProt P26883+Q9JLN9); details: model not stated; cited from earlier work
Inpp5e^Δ/Δ mice = assay: Oral MK2206 treatment of Inpp5e^Δ/Δ mice; assay type: in vivo, mouse
Procedure: (§1) MK2206 treatment of Inpp5e^Δ/+ and Inpp5e^Δ/Δ mice commenced at P9 and were performed daily up to P14 before sacrifice at P15.MK2206 treatment of Pkd1 litters commenced at P4 and were performed daily up to P10 before sacrifice at P11. MK2206 was delivered orally by pipette in a solution of 27 mg/ml MK2206.2HCI (S1078, Selleck Chemicals) in 30% Capsitol (Cydex) and 5% glucose (49163-100ML, Sigma-Aldrich). Mice were dosed with a volume to deliver MK2206 up to 75 mg/kg as indicated. Mouse body weights were recorded daily. Solutions were stored at 4 degrees for up to 2 weeks. Mice were culled via cervical dislocation or decapitation, as most appropriate for their age following ethical guidelines. Procedures were all conducted by ethically approved and trained personnel. Mice were measured for body weight, with ear tissue, urine and kidneys collected. Ear tissue and urine was stored at -20 degrees. Newborn and P4 kidneys were fixed whole in 4% PFA for 16 hrs at 4 degrees, while the kidney capsule membrane was removed from older mouse kidneys, with the kidney cut into halves and fixed in 10% NBF for 16 hrs at room temperature. Half the kidney samples were sent for histological processing and the other half were snap frozen and stored at -80 degrees until processed for RNA, alpha analysis and/or western blotting. Kidney tissues were paraffin imbedded and sectioned at 4 μm for most analysis with the exception of being sectioned at 10 μm for cilia analysis. Antigen retrieval was performed in Citrate buffer pH6 using Tefal pressure cooker or using a DAKO […] system as indicated. Antibody staining was performed as described elsewhere (Cottle et al., (2013) Cell reports, 3: 427-441), except triton x-100 was included in blocking buffers, and cover slips mounted using Prolong Gold (Invitrogen). Antibodies and stains are listed below. Imaging was using an Aperio brightfield and fluorescent scanners (MHP), Olympus Fluoview 500 (Biochemistry Imaging Suite), Nikon C2 or Leica SP8 confocal microscope (MMI). All quantifications with the exception of Nanostring analysis and Chi squared tests for analysis of mendelian ratios, were analyzed using the unpaired Student's t-test assuming unequal variance in Microsoft Excel and P≤0.05 values were considered significant. One or two tailed tests were selected as appropriate for hypothesis. Values presented are Mean±Standard Error of the Mean (S.E.M). 2K/BW % was calculated as the combined kidney weight over total body weight percentage. Albumin Creatinine Ratios (ACR) were calculated as μg Albumin over mg of Creatinine. Cyst identity was measured as a proportion of cyst epithelial area for each marker out of total sum of cyst epithelial areas of all markers (adjusted for marker co-localisation). Cystic index % is calculated as the proportion of cystic space occupied out of total kidney area in DBA-stained kidney longitudinal cross-sections. Cyst number reflects the average number of cysts counted per DBA-stained longitudinal kidney cross section. Cyst size is the average cross-sectional cyst size (mm^2) of cysts sampled from DBA-stained kidney longitudinal cross sections. Due to escape of Cre activity at the Aurka locus in cysts, unless otherwise indicated references to Inpp5e^Δ/Δ; Aurka^Δ/Δ immunostains and their quantifications reflect non-cystic regions throughout this study.

Pkd1^Δ/Δ mice = assay: Oral MK2206 treatment of Pkd1^Δ/Δ mice (ADPKD model); assay type: in vivo, mouse
Procedure: as §1

[1] = oral, daily from P9, sacrificed at P15, vs vehicle
[2] = daily P4 to P10, P11, dose dependent, up to 75 mg/kg

Row | SMILES | cyst number (mTOR) | cyst size (mTOR) | % AKT pS473 high collecting duct cells (Inpp5e^Δ/Δ mice; cystic Inpp5e^Δ/Δ and control mice, Vehicle or MK2206) | acquisition of cysts (average cyst number per section) (Inpp5e^Δ/Δ mice; [1]) | ciliation (Inpp5e^Δ/Δ mice; [1]) | cyst size (Inpp5e^Δ/Δ mice; [1]) | cystic index (Inpp5e^Δ/Δ mice; [1]) | kidney size (2K/BW %) (Inpp5e^Δ/Δ mice; [1]) | proportion of AURKA high cells (Inpp5e^Δ/Δ mice; [1]) | proportion of collecting duct cells with phosphorylated AKT (AKT pT308 high) (Inpp5e^Δ/Δ mice; [1]) | cyst number (Pkd1^Δ/Δ mice; [2]) | cyst size (Pkd1^Δ/Δ mice; [2]) | cystic index (Pkd1^Δ/Δ mice; [2]) | kidney to body weight ratio (Pkd1^Δ/Δ mice; [2]) | severity of PKD (Pkd1^Δ/Δ mice; daily P4 to P10, sacrifice at P11, up to 75 mg/kg)
1 | CO[C@H]1C[C@@H]2CC[C@@H](C)[C@@](O)(O2)C(=O)C(=O)N2CCCC[C@H]2C(=O)O[C@H]([C@H](C)C[C@@H]2CC[C@@H](OCCO)[C@H](OC)C2)CC(=O)[C@H](C)/C=C(\C)[C@@H](O)[C@@H](OC)C(=O)[C@H](C)C[C@H](C)/C=C/C=C/C=C/1C [Everolimus] | not number | reduction in cyst size |  |  |  |  |  |  |  |  |  |  |  |  | 
2 | NC1(c2ccc(-c3nc4ccn5c(=O)[nH]nc5c4cc3-c3ccccc3)cc2)CCC1 [MK2206] |  |  | reduces AKT pS473 detection | slowed the acquisition of cysts | increased ciliation | reduced cyst size | reduced the cystic index | significantly smaller than vehicle treated controls | also reduced | reduction in the proportion of collecting duct cells with phosphorylated AKT | reducing | reducing | reducing | reducing | reduce the severity of PKD in a dose dependent manner
